The record followed here is publication doi:10.1101/2025.09.23.678079v1 (biorxiv, 2025).

The target of one data set is HPK1 (Homo sapiens, UniProt Q92918). Kind of data set: HTRF enzymatic assay. It is filed as biochemical. On the technique in general: Time-resolved FRET reads energy transfer from a long-lived donor to a nearby acceptor.
Data set [1] is described as follows: in vitro. The arrangement: species or system CT26. As to conditions: human, hepg2 cells.
The nature of data set [2]: in vitro. Details: species or system HepG2. The note with it: mouse, ct26 cells.
The next data set relates to human primary T cells. In words: cells. As to conditions: T-cell, read-out: IL-2 increase EC50 (nM).
A further data set can be described thus: physchem. As to conditions: aqueous buffer, pH 7.4, aqueous buffer.
Data set [3] is described as follows: in vitro. The note with it: human, hepatocytes.
Data set [4] can be described thus: in vitro. The note with it: human, Caco-2.
Data set [5] in a line: in vitro. The note with it: mouse, hepatocytes.
Data set [6] is described as follows: in vitro. As to conditions: rat, hepatocytes.
The nature of data set [7]: in vitro. As to conditions: dog, hepatocytes.
Data set [8] in a line: in vitro. The note with it: human, plasma.
A short description of data set [9]: in vitro. As to conditions: mouse, plasma.
Data set [10] can be described thus: in vitro. The note with it: rat, plasma.
The nature of data set [11]: in vitro. As to conditions: dog, plasma.
In a further data set the target is CYP2C9 (Homo sapiens, UniProt P11712). In words: in vitro.
Sequence of CYP2C9 (P11712 whole entry): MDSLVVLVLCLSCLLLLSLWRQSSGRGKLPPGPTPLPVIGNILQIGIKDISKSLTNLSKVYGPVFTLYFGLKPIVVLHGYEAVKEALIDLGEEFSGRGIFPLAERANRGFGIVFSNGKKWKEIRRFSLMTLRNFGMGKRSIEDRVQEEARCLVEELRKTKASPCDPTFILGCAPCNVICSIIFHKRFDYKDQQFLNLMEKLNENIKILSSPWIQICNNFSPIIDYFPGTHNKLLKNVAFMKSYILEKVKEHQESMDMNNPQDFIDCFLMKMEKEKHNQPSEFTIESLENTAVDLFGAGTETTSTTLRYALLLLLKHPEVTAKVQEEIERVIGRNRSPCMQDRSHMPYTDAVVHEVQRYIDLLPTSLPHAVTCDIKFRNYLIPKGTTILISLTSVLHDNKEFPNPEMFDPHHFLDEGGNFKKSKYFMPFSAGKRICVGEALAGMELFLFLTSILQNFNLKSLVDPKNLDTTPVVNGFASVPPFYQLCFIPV
The next data set concerns the target CYP2D6 (Homo sapiens, UniProt P10635). Kind of data set: in vitro.
The next data set has as its target CYP2C19 (Homo sapiens, UniProt P33261). In words: in vitro.
For the next data set, the target named is T1, CYP1A2 (Homo sapiens, UniProt P05177).
T1 sequence (P05177 1-516): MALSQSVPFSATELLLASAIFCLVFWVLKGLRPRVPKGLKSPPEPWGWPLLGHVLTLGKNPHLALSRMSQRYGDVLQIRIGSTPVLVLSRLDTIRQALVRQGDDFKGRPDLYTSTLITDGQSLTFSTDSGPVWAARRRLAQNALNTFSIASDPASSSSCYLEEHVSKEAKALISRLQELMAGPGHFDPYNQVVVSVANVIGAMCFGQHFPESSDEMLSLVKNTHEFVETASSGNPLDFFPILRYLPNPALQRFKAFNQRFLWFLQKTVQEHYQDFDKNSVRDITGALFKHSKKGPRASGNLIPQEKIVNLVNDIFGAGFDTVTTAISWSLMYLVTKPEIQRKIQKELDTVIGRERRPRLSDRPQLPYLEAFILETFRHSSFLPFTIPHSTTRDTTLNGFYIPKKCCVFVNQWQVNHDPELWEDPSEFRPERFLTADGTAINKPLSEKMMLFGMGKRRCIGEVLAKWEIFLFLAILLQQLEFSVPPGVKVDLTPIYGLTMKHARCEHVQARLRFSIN
Kind of data set: in vitro.

In another data set the target is T2, PXR (Homo sapiens, UniProt O75469).
T2 sequence (O75469 1-434): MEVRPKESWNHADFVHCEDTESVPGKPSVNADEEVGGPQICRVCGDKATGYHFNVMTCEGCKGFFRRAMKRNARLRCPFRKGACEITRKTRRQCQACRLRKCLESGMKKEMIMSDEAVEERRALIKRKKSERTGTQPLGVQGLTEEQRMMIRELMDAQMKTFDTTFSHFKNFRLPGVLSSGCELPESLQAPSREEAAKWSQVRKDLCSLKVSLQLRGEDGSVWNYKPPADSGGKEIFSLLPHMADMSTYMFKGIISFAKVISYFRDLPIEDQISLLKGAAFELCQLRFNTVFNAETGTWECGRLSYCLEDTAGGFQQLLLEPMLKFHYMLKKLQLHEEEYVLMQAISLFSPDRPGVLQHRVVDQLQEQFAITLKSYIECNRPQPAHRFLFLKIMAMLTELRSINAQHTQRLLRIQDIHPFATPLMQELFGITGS
In words: in vitro.

Data set [12] addresses T3, hERG (Homo sapiens, UniProt Q12809, species not given). In words: in vitro.
Data set [13] concerns the target T3, hERG. Kind of data set: in vitro. This is another data set of the same source.

Converted amounts (≈) assume the structure as drawn.

Usually IC50 stands for the point on the concentration scale where inhibition reaches its midpoint. Higher therefore signals weaker potency. The CC50 is the concentration giving 50% cytotoxicity. The low end stands for harm at low concentration, the high end for better tolerance by the cells. The term EC50 denotes the concentration giving half of the maximal effect. The solubility is how much of the substance goes into solution per volume. What is called half-life is how long it takes for the measured level to halve. Read a low half-life as rapid decline. Usually efflux ratio stands for a quotient of directional permeabilities that is used to spot active efflux. Usually fraction unbound stands for free concentration divided by total concentration. The low end stands for little free substance, the high end for much free substance. By inhibition is commonly meant the change of the read-out against control, counted positive when it falls. A higher inhibition goes with a response far below the control.

T3 sequence (Q12809 whole entry): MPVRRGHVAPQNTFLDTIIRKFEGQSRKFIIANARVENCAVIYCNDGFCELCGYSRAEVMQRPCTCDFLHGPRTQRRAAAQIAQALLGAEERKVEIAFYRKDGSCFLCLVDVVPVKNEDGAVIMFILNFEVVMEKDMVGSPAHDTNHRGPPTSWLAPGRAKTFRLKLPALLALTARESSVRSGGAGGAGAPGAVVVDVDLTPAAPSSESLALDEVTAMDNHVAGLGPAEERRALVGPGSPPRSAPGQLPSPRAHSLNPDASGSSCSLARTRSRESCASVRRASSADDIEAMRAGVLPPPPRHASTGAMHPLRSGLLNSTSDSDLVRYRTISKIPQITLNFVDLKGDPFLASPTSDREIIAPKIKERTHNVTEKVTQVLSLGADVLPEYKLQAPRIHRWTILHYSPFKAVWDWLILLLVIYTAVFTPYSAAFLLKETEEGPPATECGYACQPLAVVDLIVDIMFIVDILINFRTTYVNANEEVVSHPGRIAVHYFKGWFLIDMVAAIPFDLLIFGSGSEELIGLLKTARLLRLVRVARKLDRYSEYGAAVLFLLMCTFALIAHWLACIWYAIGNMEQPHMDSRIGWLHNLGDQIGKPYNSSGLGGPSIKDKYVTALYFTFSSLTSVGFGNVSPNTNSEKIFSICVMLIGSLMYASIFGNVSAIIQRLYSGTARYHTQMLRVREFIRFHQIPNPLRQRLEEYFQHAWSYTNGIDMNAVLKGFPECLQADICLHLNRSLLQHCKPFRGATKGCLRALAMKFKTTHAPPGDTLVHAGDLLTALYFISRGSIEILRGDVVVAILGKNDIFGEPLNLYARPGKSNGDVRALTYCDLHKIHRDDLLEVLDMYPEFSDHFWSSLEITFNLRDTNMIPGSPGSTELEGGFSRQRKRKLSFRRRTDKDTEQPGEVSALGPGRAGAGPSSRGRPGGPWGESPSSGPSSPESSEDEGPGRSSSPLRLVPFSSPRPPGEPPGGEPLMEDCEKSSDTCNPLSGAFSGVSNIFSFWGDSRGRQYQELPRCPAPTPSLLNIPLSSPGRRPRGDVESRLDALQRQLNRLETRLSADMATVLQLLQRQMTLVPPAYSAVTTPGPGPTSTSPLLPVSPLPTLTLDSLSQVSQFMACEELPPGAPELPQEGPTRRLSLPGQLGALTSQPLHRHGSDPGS
Sequence of HPK1 (Q92918 whole entry): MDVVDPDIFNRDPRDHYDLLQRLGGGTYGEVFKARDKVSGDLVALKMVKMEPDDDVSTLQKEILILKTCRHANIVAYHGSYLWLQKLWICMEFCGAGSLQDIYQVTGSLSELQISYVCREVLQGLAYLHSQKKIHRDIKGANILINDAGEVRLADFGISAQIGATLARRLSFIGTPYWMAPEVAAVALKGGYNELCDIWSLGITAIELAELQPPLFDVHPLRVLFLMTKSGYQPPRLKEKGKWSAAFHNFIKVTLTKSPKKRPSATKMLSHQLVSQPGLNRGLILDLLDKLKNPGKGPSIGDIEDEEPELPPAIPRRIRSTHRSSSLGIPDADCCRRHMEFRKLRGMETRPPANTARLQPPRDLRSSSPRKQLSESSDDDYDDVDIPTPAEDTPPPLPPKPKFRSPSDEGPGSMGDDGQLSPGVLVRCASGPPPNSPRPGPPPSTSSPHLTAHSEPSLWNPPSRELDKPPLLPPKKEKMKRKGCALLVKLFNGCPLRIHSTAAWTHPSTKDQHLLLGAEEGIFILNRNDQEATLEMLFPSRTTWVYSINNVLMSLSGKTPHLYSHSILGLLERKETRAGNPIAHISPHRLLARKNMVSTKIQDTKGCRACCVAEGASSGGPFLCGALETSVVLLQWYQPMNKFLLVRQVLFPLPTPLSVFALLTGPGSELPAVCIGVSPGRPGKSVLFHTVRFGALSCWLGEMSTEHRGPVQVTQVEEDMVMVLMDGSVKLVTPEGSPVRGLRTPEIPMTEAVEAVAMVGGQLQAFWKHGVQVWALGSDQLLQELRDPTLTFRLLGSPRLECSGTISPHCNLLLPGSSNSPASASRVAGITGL
Sequence of CYP2D6 (P10635 whole entry): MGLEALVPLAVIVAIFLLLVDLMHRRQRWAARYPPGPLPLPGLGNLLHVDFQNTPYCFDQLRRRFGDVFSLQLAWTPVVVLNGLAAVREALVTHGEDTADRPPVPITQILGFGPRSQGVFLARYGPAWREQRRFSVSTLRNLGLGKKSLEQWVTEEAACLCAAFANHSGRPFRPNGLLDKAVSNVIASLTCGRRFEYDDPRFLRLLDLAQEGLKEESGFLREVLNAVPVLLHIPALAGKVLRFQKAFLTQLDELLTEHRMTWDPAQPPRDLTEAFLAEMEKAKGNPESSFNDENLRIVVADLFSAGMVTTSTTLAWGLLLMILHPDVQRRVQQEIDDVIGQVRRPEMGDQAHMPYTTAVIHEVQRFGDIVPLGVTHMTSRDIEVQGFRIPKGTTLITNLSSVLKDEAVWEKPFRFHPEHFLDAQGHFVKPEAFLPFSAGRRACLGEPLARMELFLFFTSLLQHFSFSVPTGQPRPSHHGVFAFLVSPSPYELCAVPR
Sequence of CYP2C19 (P33261 whole entry): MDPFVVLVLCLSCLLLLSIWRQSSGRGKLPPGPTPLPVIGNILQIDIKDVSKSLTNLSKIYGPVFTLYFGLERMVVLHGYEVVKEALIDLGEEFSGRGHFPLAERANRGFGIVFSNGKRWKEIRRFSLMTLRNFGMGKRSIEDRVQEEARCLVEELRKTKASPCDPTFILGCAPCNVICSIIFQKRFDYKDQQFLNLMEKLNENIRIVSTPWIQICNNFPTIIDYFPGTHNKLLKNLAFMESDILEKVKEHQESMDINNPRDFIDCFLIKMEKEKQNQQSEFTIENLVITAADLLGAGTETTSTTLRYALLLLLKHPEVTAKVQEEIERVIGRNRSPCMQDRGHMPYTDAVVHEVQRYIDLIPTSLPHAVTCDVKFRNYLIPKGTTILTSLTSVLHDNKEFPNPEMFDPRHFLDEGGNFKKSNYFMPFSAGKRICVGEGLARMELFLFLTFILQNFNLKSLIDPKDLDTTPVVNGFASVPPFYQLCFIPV

On to `COc1cccn2c(-c3cc4c(c5c3CNC5=O)Nc3ccc(N5CCOCC5)cc3C4(C)C)cnc12` [compound 4, Cmpd. 4], for which, on HPK1, the IC50 is 0.0089 µM. This lies in the single-digit nanomolar range.
In turn, `COc1cccn2c(-c3cc4c(c5c3CCNC5=O)Nc3ccc(N5CCOCC5)cc3C4(C)C)cnc12` [compound 3, Cmpd. 3] returned an IC50 at HPK1 of 0.0093 µM. This IC50 and that of the compound before are within 1.5-fold of each other.
With `CO[C@H]1CCCn2c(-c3cc4c(c5c3CNC5=O)Nc3ccc(N5CCOCC5)cc3C4(C)C)cnc21` [compound 6, Cmpd. 6], the half-maximal cytotoxic concentration (CC50) was determined as 3.29 µM in the data set “in vitro [1]” and 7.8 µM in the data set “in vitro [2]”. Moreover, in the data set on human primary T cells, the EC50 worked out at 9.5 nM. The compound further registered a solubility in the data set “physchem” of 56.3 µM (≈ 28.1 µg/mL). In addition, the half-life in the data set “in vitro [3]” was 37.7 h; in the data set “in vitro [5]” it was 2.68 h; in “in vitro [6]”, 3.93 h; in the data set “in vitro [7]”, 3.42 h. Besides, the efflux ratio in “in vitro [4]” is 2.72. The fraction unbound in the data set “in vitro [8]” is 0.046; in the data set “in vitro [9]” it was 0.023; in “in vitro [10]”, 0.0386; in “in vitro [11]”, 0.0112. Also, the inhibition at 10 µM against CYP2C9 was 24.5%; at CYP2D6, 20.7%; against CYP2C19, 53.6%; against CYP1A2, 9%; at hERG [12], 74.5%. This compound also registered an activity at 1 µM at PXR of 2%. Moreover, 5.16 µM corresponded to half-maximal inhibition against hERG [13] (IC50).
